From ChEMBL document CHEMBL2034849, “Discovery of a Potent Dihydrooxadiazole Series of Non-ATP-Competitive MK2 (MAPKAPK2) Inhibitors” (ACS Med Chem Lett, 2012)
Converted amounts (≈) assume the structure as drawn. The source made the active and inactive calls. No cut-off for these calls is given here.

How the values were obtained:
[1] = target: T1, MAP kinase-activated protein kinase 2 (Homo sapiens, UniProt P49137); experiment: Inhibition of MK2 using 5TAMRA-KKLNRTLSVA-COOH as substrate incubated for 30 mins prior to substrate addition measured after 30 mins by immobilized metal ion affinity-based fluorescence polarization assay in presence of 100 uM ATP
Target sequence in this assay (P49137 whole entry): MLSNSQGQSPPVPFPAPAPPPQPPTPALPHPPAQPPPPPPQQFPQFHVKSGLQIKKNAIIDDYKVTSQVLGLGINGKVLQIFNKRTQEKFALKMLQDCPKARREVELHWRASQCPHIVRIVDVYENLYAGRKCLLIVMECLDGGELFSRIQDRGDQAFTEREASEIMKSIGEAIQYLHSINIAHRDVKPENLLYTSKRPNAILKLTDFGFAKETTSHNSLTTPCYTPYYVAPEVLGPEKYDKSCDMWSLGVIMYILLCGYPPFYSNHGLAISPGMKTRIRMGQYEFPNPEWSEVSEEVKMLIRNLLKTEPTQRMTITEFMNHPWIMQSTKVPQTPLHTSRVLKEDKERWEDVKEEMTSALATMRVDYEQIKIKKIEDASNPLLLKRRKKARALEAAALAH

[2] = target: T1, MAP kinase-activated protein kinase 2; experiment: Inhibition of MK2 in human THP1 cells assessed as inhibition of LPS-induced HSP27 Ser78 phosphorylation incubated for 60 mins prior to LPS-induction measured after 60 mins; format: cell-based, THP-1
Target sequence in this assay (P49137 whole entry): as above

[3] = Solubility of the compound in 10 mM sodium phosphate buffer at pH 7.4; format: physicochemical
[4] = Solubility of the compound in 2% DMSO at pH 7.4; format: physicochemical
[5] = Plasma protein binding in human; format: ADME, cell-free; conditions: read-out: PPB (converted)
Caco-2 = experiment: Permeability across human Caco2 cells; format: ADME, cell-based
[6] = Plasma protein binding in rat; format: ADME, cell-free; conditions: read-out: PPB (converted)
[7] = Clearance in rat hepatocyte assessed per million cells; format: ADME, cell-based; conditions: hepatocytes, read-out: CLH
[8] = target: T1, MAP kinase-activated protein kinase 2; experiment: Non-competitive inhibition of MK2 using 5TAMRA-KKLNRTLSVA-COOH as substrate by immobilized metal ion affinity-based fluorescence polarization assay in presence of 1 to 100 uM ATP
Target sequence in this assay (P49137 whole entry, looked up): as the sequence (P49137 whole entry) above

SMILES | IC50 [1] [nM] | further results
COc1ccc(-c2ccc(C3=NOC(c4ccccc4-c4cncnc4)N3c3ccc(N4CCNCC4)cc3)o2)cc1 (stereo not drawn) | 310 | 
c1ccc(C2ON=C(c3ccc(-c4ccncc4)o3)N2c2ccc(N3CCNCC3)cc2)c(-c2cncnc2)c1 (stereo not drawn) | 790 | 
Fc1ccc(-c2ccc(C3=NOC(c4ccccc4-c4cncnc4)N3c3ccc(N4CCNCC4)cc3)o2)cc1 (stereo not drawn) | 50 | EC50 [2]: 760 nM
N#Cc1ccc(-c2ccc(C3=NOC(c4ccccc4-c4cncnc4)N3c3ccc(N4CCNCC4)cc3)o2)cc1 (stereo in doubt; 33) | 8 | EC50 [2]: 1200 nM
Clc1ccc(-c2ccc(C3ON=C(c4ccccc4)N3c3ccc(N4CCNCC4)cc3)o2)cc1 (stereo not drawn) | 3700 | 
Clc1ccc(-c2ccc(C3=NOC(c4ccncc4)N3c3ccc(N4CCNCC4)cc3)o2)cc1 (stereo not drawn) | 30 | EC50 [2]: 2700 nM
Clc1ccc(-c2ccc(C3=NOC(c4ccncc4)N3c3ccc(C4CCNCC4)cc3)o2)cc1 (stereo not drawn) | 190 | 
Fc1cc(-c2ccc(C3=NOC(c4ccccc4-c4cncnc4)N3c3ccc(N4CCNCC4)cc3)o2)ccc1Cl (stereo not drawn) | 220 | 
Clc1ccc(-c2ccc(C3=NOC(c4ccccc4-c4cncnc4)N3c3ccc(N4CCNCC4)cc3)o2)cc1Cl (stereo not drawn) | 970 | 
O=c1onc(-c2ccc(-c3ccc(Cl)cc3)o2)n1-c1ccc(N2CCNCC2)cc1 | 6200 | 
N#Cc1ccc(-c2ccc(C3=NOC(c4ccccc4-c4cncnc4)N3c3ccc(N4CCNCC4)cc3)o2)cc1 (single isomer, unassigned; enantiomer 2) | 340 | 
Clc1ccc(-c2ccc(C3=NOC(c4cnc[nH]4)N3c3ccc(N4CCNCC4)cc3)o2)cc1 (stereo not drawn) | 70 | EC50 [2]: 2400 nM
N#Cc1ccc(-c2ccc(C3=NOCCN3c3ccc(N4CCNCC4)cc3)o2)cc1 | 110 | 
Clc1cccc(-c2ccc(C3=NOC(c4ccccc4-c4cncnc4)N3c3ccc(N4CCNCC4)cc3)o2)c1 (stereo not drawn) | 1300 | 
Fc1ccc(C2ON=C(c3ccc(-c4ccc(Cl)cc4)o3)N2c2ccc(N3CCNCC3)cc2)c(F)c1 (stereo not drawn) | 100 | 
Fc1ccc(C2ON=C(c3ccc(-c4ccc(Cl)cc4)o3)N2c2ccc(N3CCNCC3)cc2)nc1 (stereo not drawn) | 60 | EC50 [2]: 3700 nM
CNC(=O)c1ccc(-c2ccc(C3=NOC(c4ccccc4-c4cncnc4)N3c3ccc(N4CCNCC4)cc3)o2)cc1 (stereo not drawn) | > 10000 | 
Clc1ccc(-c2ccc(C3=NOC(c4cccnc4)N3c3ccc(N4CCNCC4)cc3)o2)cc1 (stereo not drawn) | 50 | 
FC1(F)CCN(c2ccc(N3C(c4ccc(-c5ccc(Cl)cc5)o4)=NOC3c3ccncc3)cc2)CC1 (stereo not drawn) | > 10000 | 
Fc1cc(F)cc(C2ON=C(c3ccc(-c4ccc(Cl)cc4)o3)N2c2ccc(N3CCNCC3)cc2)c1 (stereo not drawn) | 190 | 
N#Cc1ccc(-c2ccc(C3=NOC(c4ccccc4-c4cncnc4)N3c3ccc(N4CCNCC4)cc3)o2)cc1 (stereo in doubt; 38) [listing 1 of 2 here] | 6 | solubility [3]: 20 µM (≈ 11.1 µg/mL); solubility [4]: 20 µM (≈ 11.1 µg/mL); fraction unbound [5]: 0.035; permeability (Caco-2): permeable; EC50 [2]: 170 nM; fraction unbound [6]: 0.031; hepatocyte CLint [7]: 35 µL/min/1e6 cells
Clc1ccc(-c2ccc(-c3cc(-c4ccc(N5CCNCC5)cc4)on3)o2)cc1 | > 10000 | 
Fc1ccc(C2ON=C(c3ccc(-c4ccc(Cl)cc4)o3)N2c2ccc(N3CCNCC3)cc2)cc1 (stereo not drawn) | 160 | 
Clc1ccc(-c2ccc(C3=NOC(c4ccncn4)N3c3ccc(N4CCNCC4)cc3)o2)cc1 (stereo not drawn) | 60 | 
Clc1ccc(-c2ccc(-c3nocc3-c3ccc(N4CCNCC4)cc3)o2)cc1 | 3400 | 
N#Cc1cccc(-c2ccc(C3=NOC(c4ccccc4-c4cncnc4)N3c3ccc(N4CCNCC4)cc3)o2)c1 (stereo not drawn) | 5300 | 
Clc1ccc(-c2ccc(C3=NOC(c4ccccn4)N3c3ccc(N4CCNCC4)cc3)o2)cc1 (stereo not drawn) | 30 | EC50 [2]: 3000 nM
Clc1ccc(-c2ccc(C3=NOC(c4ccncc4)N3Cc3ccc(N4CCNCC4)cc3)o2)cc1 (stereo not drawn) | > 10000 | 
Clc1ccc(-c2ccc(C3=NOCCCN3c3ccc(N4CCNCC4)cc3)o2)cc1 | 1400 | 
N#Cc1ccc(-c2ccc(C3=NOC(c4ccccc4-c4cncnc4)N3c3ccc(N4CCNCC4)cc3)o2)cc1 (stereo in doubt; 38) [listing 2 of 2 here] |  | inhibition [8]: Active
